According to patent US4161520A, “Method of treating hypertension” (priority 1976, dated 1979):

Experiments:
[1] = system: DOCA-Na. rat; test: Comparative antihypertensive activity of polyether ionophores in the DOCA-Na rat (Example 3, Table III); format: in vivo; conditions: oral, five-day period, daily dose 1/100 of oral LD50 up to 10 mg/kg/day; for AHR (Subacute antihypertensive ratio): bromolasalocid as standard reference; for DURATION OF EFFECT: monitored until return to pre-drug levels
Experimental: Using bromolasalocid as a standard for comparison, a number of polyether ionophores were tested for antihypertensive activity. The tests were conducted utilizing single oral dosages in the DOCA-Na. rat over a five-day period with dosing discontinued thereafter. Blood pressure monitoring was carried out for the five-day period and daily after cessation of dosing until blood pressure returned to pre-drug levels. […] The daily dosage was calculated by using one-one hundredth (1/100) of the oral (per os) toxicity (LD50) up to a maximum of 10 mg/kg/day. The antihypertensive activity expressed as AHR (Subacute antihypertensive ratio) was calculated using bromolasalocid as the standard reference (Table III).

[2] = Oral (per os) toxicity (LD50); format: in vivo

Row | Compound | ONSET TO MAX. RESPONSE [1] | AHR (Subacute antihypertensive ratio) [1] | DURATION OF EFFECT [1] | LD50 [2]
1 | COC1CCC(OC2C(C)C(O)(C(C)C(=O)O)OC(CC3CC(OC)C(C)C4(O3)OC(C)(C3CCC(C5CCC(C6OC(C)(O)C(C)C(OC)C6C)O5)O3)C(OC)C4C)C2(C)OC)OC1C (stereo not shown) [A-204] | 4 days | 86.6 | 5 days | 14 mg/kg
2 | CNc1ccc2oc(C[C@H]3O[C@@]4(CC[C@H]3C)O[C@H]([C@H](C)C(=O)c3ccc[nH]3)[C@H](C)C[C@H]4C)nc2c1C(=O)O [A-23187] | 4 days | 0.93 | 10 days | > 1000 mg/kg
3 | CO[C@@H]1C[C@@H](C[C@H]2CC[C@H](C)[C@H]([C@@H](C)C(=O)O)O2)O[C@]2(O[C@](C)([C@H]3CC[C@@](C)([C@@H]4O[C@@H]([C@H]5O[C@@](O)(CO)[C@H](C)C[C@@H]5C)C[C@@H]4C)O3)C[C@H]2C)[C@@H]1C [NIGERICIN, Nigericin] | 3 days | 4.0 | 9 days | 190 mg/kg
4 | CC/C(=C\C=C\[C@@H]1C=C[C@@H]2[C@@H](CC)CC[C@H]2[C@@H]1C(=O)c1ccc[nH]1)[C@@H]1O[C@@H]([C@@H](C)C(=O)O)CC[C@@H]1C [X-14547A] | 2 days | 0.58 | 3 days | 129 mg/kg
5 | BROMOISOLASALOCID | 2 days | 0.85 | 8 days | > 1000 mg/kg
6 | Lysocellin | 2 days | 2.08 | 3 days | 225 mg/kg
7 | Monensin | 2 days | 7.2 | 9 days | 250 mg/kg
